Test results reported in patent US6395745B1, “Alkaloid halide salts of swainsonine and methods of use” (priority 1997, dated 2002).

Molecular target: T1, Golgi mannosidase II in MDAY-D2 tumor cells (Mus musculus, UniProt P27046)
T1 construct: endogenous in cells; host or cells: MDAY-D2 tumor cells
T1 sequence (P27046 1-1150): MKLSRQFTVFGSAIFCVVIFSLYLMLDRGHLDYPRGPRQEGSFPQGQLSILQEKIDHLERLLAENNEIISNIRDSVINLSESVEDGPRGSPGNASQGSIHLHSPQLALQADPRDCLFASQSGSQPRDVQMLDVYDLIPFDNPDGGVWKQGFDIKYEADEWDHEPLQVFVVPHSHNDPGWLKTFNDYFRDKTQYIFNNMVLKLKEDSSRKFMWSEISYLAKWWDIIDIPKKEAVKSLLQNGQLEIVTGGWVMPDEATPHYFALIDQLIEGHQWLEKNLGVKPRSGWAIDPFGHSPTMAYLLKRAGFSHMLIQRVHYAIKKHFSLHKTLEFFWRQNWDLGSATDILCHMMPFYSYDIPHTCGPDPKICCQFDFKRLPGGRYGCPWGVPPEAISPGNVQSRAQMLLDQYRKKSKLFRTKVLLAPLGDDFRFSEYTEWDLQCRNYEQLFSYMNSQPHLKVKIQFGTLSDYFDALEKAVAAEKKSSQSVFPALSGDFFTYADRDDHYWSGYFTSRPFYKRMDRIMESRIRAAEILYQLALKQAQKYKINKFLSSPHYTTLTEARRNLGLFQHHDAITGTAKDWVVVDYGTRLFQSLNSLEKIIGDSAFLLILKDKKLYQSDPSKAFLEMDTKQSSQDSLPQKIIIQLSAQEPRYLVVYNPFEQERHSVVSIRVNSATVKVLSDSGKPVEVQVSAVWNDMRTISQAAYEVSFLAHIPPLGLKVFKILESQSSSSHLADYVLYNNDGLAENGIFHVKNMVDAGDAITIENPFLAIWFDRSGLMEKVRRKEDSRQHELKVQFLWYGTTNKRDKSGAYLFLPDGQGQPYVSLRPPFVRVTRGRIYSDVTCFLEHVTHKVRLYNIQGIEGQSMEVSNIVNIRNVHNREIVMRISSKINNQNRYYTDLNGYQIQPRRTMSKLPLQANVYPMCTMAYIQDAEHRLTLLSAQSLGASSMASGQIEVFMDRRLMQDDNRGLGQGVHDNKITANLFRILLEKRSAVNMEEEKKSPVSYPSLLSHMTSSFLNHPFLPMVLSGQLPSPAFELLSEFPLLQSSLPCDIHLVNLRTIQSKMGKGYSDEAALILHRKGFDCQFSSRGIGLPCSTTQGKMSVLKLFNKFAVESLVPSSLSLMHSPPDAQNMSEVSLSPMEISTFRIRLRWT
Assay: L-PHA cell assay for inhibition of mannosidase II in cells (alkaline phosphatase readout)
Format: cell-based, murine
Procedure: The test compound swainsonine hydrochloride is prepared by 0.5 serial dilution of a 40 μM stock in 50 μl of 5% fetal bovine serum (FBS) in minimum essential medium (MEM). To 50 μl of diluted test samples in 96 well plates, 10,000 MDAY-D2 tumor cells in 50 μl of 5% FBS in MEM is added to each well. The samples are incubated at 37° C. overnight in a 5% CO2 incubator. Test wells are prepared in duplicate for the addition of 25 μl/well of either 5% FBS in MEM or 5% FBS in MEM containing 100 μg/ml of L-PHA. Samples are again incubated at 37° C. overnight in a 5% CO2 incubator. The viability and/or proliferation of the cells in each well is measured using phenazine methylsulfate (PMS) and (3(4,5-dimethylthiazol-2-yl-5-(3-carboxymethoxyphenyl)-2,4,sulfophenyl)-2H tetrazolium salt (“MTS”) as described in the instructions of the Promega CellTiter 96 AQ kit. The absorption is read at 490 nm. The loss of L-PHA toxicity is directly related to entry of the drug into the cells and to inhibition of Golgi mannosidase II, and loss of L-PHA binding carbohydrate structures on the cells surface.
Cells. […]
Alkaline Phosphatase Assay. […] After 15-30 min of colour development, absorbance of the chromogenic product para-nitrophenol was measured at […] using a multiwell scanning photometer (Thermomax Multiplate Reader, Molecular Devices). […]

Question: How did the IC50 turn out when `Cl.O[C@H]1[C@H]2[C@H](O)CCCN2C[C@@H]1O` [swainsonine hydrochloride, (−)-(1S,2S,8R,8aR)-1,2,8-trihydroxyoctahydro-indolizidine hydrochloride salt] was run?
Answer: 57 ± 10 nM
